In US9604975B2, “Indolyl-pyridone derivatives having checkpoint kinase 1 inhibitory activity” (Vernalis (R&D) Ltd., priority 2009, dated 2017):

Target: T1, CHK1 (Homo sapiens, UniProt O14757)
T1 construct: His; purchased Invitrogen
T1 sequence (O14757 1-476): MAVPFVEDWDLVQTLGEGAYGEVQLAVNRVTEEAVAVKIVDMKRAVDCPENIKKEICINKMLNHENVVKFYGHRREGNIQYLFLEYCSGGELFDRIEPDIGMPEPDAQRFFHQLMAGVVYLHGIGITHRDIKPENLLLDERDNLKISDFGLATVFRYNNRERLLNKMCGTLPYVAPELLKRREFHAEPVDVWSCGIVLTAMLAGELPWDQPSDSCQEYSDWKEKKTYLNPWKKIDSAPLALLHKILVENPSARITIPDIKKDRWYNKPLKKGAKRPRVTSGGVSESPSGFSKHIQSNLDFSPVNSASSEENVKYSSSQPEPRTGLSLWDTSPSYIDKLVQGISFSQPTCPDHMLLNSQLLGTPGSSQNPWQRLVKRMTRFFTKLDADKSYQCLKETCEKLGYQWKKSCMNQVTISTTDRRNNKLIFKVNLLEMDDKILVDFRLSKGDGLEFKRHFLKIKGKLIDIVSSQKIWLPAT
Assay: CHK1 Enzyme Assay (phosphorylation of Chktide peptide, 33P-ATP filter assay)
Type: biochemical
Settings: 12.5 nM His-CHK1, 0.01 mM ATP, 40 minutes at 30° C.; read-out: CHK1 Enzyme Activity (IC50 range)
Procedure, shortened: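 His-CHK1 (12.5 nM) phosphorylating 14.8 μM Chktide with 0.01 mM ATP plus 33P-γ-ATP, in 50 mM Hepes-NaOH pH 7.5 with 0.1 mg/mL BSA. Incubated with inhibitor for 40 min at 30 °C. Stopped with phosphoric acid; phosphopeptide captured on filter and counted by scintillation.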

CCN(CCO)Cc1ccc2[nH]c(-c3cc(C(=O)Nc4cnn(Cc5ccc(F)c(F)c5)c4)c[nH]c3=O)cc2c1 [Example 102, 5-(5-{[Ethyl-(2-hydroxyethyl)amino]-methyl}-1H-indol-2yl)-6-oxo-1,6-dihydropyridine-3-carboxylic acid[1-(3,4-difluorobenzyl)-1H-pyrazol-4-yl]-amide]
IC50: < 100 nM

Cc1ccc(Cn2cc(C(=O)Nc3c[nH]c(=O)c(-c4cc5cc(N6CCN(C)CC6)ccc5[nH]4)c3)cn2)cc1 [Example 112, 1-(4-Methyl-benzyl)-1H-pyrazole-4-carboxylic acid {5-[5-(4-methyl-piperazin-1-yl)-1H-indol-2-yl]-6-oxo-1,6-dihydro-pyridin-3-yl}-amide]
IC50: < 100 nM

Cc1ccc(Cn2cc(C(=O)Nc3c[nH]c(=O)c(-c4cc5cc(CN6CCC(F)CC6)ccc5[nH]4)c3)cn2)cc1 [Example 37, 1-(4-Methyl-benzyl)-1H-pyrazole-4-carboxylic acid {5-[5-(4-fluoro-piperidin-1-ylmethyl)-1H-indol-2-yl]-6-oxo-1,6-dihydro-pyridin-3-yl}-amide]
IC50: < 100 nM

CCc1cccc(Cn2cc(C(=O)Nc3c[nH]c(=O)c(-c4cc5cc(OCCCN6CCN(C)CC6)ccc5[nH]4)c3)cn2)c1 [Example 127, 1-(3-Ethyl-benzyl)-1H-pyrazole-4-carboxylic acid (5-{5-[3-(4-methyl-piperazin-1-yl)-propoxy]-1H-indol-2-yl}-6-oxo-1,6-dihydro-pyridin-3-yl)-amide]
IC50: < 100 nM

C[C@H](c1ccccc1)n1cc(C(=O)Nc2c[nH]c(=O)c(-c3cc4cc(CN5CCC(F)CC5)ccc4[nH]3)c2)cn1 [Example 169, 1-((R)-1-Phenyl-ethyl)-1H-pyrazole-4-carboxylic acid {5-[5-(4-fluoro-piperidin-1-ylmethyl)-1H-indol-2-yl]-6-oxo-1,6-dihydro-pyridin-3-yl}-amide]
IC50: < 100 nM

C[C@@H]1CN(Cc2cccc3[nH]c(-c4cc(NC(=O)c5cnn(Cc6ccccc6)c5)c[nH]c4=O)cc23)C[C@H](C)O1 [Example 109, 1-Benzyl-1H-pyrazole-4-carboxylic acid {5-[4-(cis-2,6-dimethyl-morpholin-4-ylmethyl)-1H-indol-2-yl]-6-oxo-1,6-dihydro-pyridin-3-yl}-amide]
IC50: < 100 nM

O=C(Nc1c[nH]c(=O)c(-c2cc3cc(OCCN4CCCCC4)ccc3[nH]2)c1)c1cnn(Cc2ccccc2)c1 [Example 149, 1-Benzyl-1H-pyrazole-4-carboxylic acid {6-oxo-5-[5-(2-piperidin-1-yl-ethoxy)-1H-indol-2-yl]-1,6-dihydro-pyridin-3-yl}-amide]
IC50: < 100 nM

Cc1ccc(Cn2cc(NC(=O)c3c[nH]c(=O)c(-c4cc5ccccc5[nH]4)c3)cn2)cc1F [Example 14, 5-(1H-Indol-2-yl)-6-oxo-1,6-dihydro-pyridine-3-carboxylic acid [1-(3-fluoro-4-methyl-benzyl)-1H-pyrazol-4-yl]-amide]
IC50: 100 to 500 nM

CN(CCO)Cc1ccc2[nH]c(-c3cc(C(=O)Nc4cnn(Cc5ccc(F)c(F)c5)c4)c[nH]c3=O)cc2c1 [Example 101, 5-(5-{[(2-hydroxyethyl)-methylamino]-methyl}-1H-indol-2yl)-6-oxo-1,6-dihydropyridine-3-carboxylic acid[1-(3,4-difluorobenzyl)-1H-pyrazol-4-yl]-amide]
IC50: < 100 nM

CC(C)(COc1ccc2[nH]c(-c3cc(NC(=O)c4cnn(Cc5ccccc5)c4)c[nH]c3=O)cc2c1)CN1CC[C@H](F)C1 [Example 183, 1-Benzyl-1H-pyrazole-4-carboxylic acid (5-{5-[3-((S)-3-fluoro-pyrrolidin-1-yl)-2,2-dimethyl-propoxyl]-1H-indol-2-yl}-6-oxo-1,6-dihydro-pyridin-3-yl)-amide]
IC50: < 100 nM

CCN(CC)CCCOc1ccc2[nH]c(-c3cc(NC(=O)c4cnn(Cc5ccccc5)c4)c[nH]c3=O)cc2c1 [Example 139, 1-Benzyl-1H-pyrazole-4-carboxylic acid {5-[5-(3-diethylamino-propoxy)-1H-indol-2-yl]-6-oxo-1,6-dihydro-pyridin-3-yl}-amide]
IC50: < 100 nM

O=C(Nc1c[nH]c(=O)c(-c2cc3cc(CN4CCC(F)CC4)ccc3[nH]2)c1)c1cnn(CCc2ccc(F)cc2)c1 [Example 96, 1-[2-(4-Fluoro-phenyl)-ethyl]-1H-pyrazole-4-carboxylic acid {5-[5-(4-fluoro-piperidin-1-ylmethyl)-1H-indol-2-yl]-6-oxo-1,6-dihydro-pyridin-3-yl}-amide]
IC50: < 100 nM

Cc1[nH]c(=O)c(-c2cc3ccccc3[nH]2)cc1C(=O)Nc1cnn(Cc2cccc(F)c2)c1 [Example 18, 5-(1H-Indol-2-yl)-2-methyl-6-oxo-1,6-dihydro-pyridine-3-carboxylic acid [1-(3-fluoro-benzyl)-1H-pyrazol-4-yl]-amide]
IC50: 500 to 1500 nM

O=C(Nc1c[nH]c(=O)c(-c2cc3cc(CN4CC[C@H](F)C4)ccc3[nH]2)c1)c1cnn(Cc2ccccc2)c1 [Example 175, 1-Benzyl-1H-pyrazole-4-carboxylic acid {5-[5-((S)-3-fluoro-pyrrolidin-1-ylmethyl)-1H-indol-2-yl]-6-oxo-1,6-dihydro-pyridin-3-yl}-amide]
IC50: < 100 nM

O=C(Nc1cnn(Cc2cc(F)cc(F)c2)c1)c1c[nH]c(=O)c(-c2cc3ccccc3[nH]2)c1 [Example 13, 5-(1H-Indol-2-yl)-6-oxo-1,6-dihydro-pyridine-3-carboxylic acid [1-(3,5-difluoro-benzyl)-1H-pyrazol-4-yl]-amide]
IC50: < 100 nM

CCN(CC)CCOc1ccc2[nH]c(-c3cc(NC(=O)c4cnn(Cc5ccc(C(C)(C)C)cc5)c4)c[nH]c3=O)cc2c1 [Example 154]
IC50: 500 to 1500 nM

CN1CCN(CCOc2ccc3[nH]c(-c4cc(NC(=O)c5cnn(Cc6ccccc6)c5)c[nH]c4=O)cc3c2)CC1 [Example 146, 1-Benzyl-1H-pyrazole-4-carboxylic acid (5-{5-[2-(4-methyl-piperazin-1-yl)-ethoxy]-1H-indol-2-yl}-6-oxo-1,6-dihydro-pyridin-3-yl)-amide]
IC50: < 100 nM

CC(c1ccc(F)cc1)n1cc(C(=O)Nc2c[nH]c(=O)c(-c3cc4cc(CN5CCC(F)CC5)ccc4[nH]3)c2)cn1 (centres unmarked) [Example 90, 1-[1-(Fluoro-phenyl)-ethyl]-1H-pyrrazole-4-carboxylic acid {5-[5-(4-fluoro-piperidin-1ylmethyl)-1H-indol-2-yl]-6-oxo-1,6-dihydro-pyridin-3-yl}-amide]
IC50: < 100 nM

O=C(Nc1c[nH]c(=O)c(-c2cc3cc(CN4CCC(F)CC4)ccc3[nH]2)c1)c1cnn(Cc2ccc(F)cc2)c1 [Example 81, 1-(4-Fluoro-benzyl)-1H-pyrazole-4-carboxylic acid {5-[5-(4-fluoro-piperidin-1-ylmethyl)-1H-indol-2-yl]-6-oxo-1,6-dihydro-pyridin-3-yl}-amide]
IC50: < 100 nM

O=C(Nc1c[nH]c(=O)c(-c2cc3cc(CN4CCCC(F)C4)ccc3[nH]2)c1)c1cnn(Cc2ccc(Cl)cc2)c1 (centres unmarked) [Example 63, 1-(4-Chloro-benzyl)-1H-pyrazole-4-carboxylic acid {5-[5-(3-fluoro-piperidin-1-ylmethyl)-1H-indol-2-yl]-6-oxo-1,6-dihydro-pyridin-3-yl}-amide]
IC50: < 100 nM

Cc1cccc(Cn2cc(C(=O)Nc3c[nH]c(=O)c(-c4cc5ccccc5[nH]4)c3)cn2)c1 [Example 26, 1-(3-Methyl-benzyl)-1H-pyrazole-4-carboxylic acid [5-(1H-indol-2-yl)-6-oxo-1,6-dihydro-pyridin-3-yl]-amide]
IC50: < 100 nM

Cc1ccc(Cn2cc(C(=O)Nc3c[nH]c(=O)c(-c4cc5cc(CN6CCOCC6)ccc5[nH]4)c3)cn2)cc1 [Example 40, 1-(4-Methyl-benzyl)-1H-pyrazole-4-carboxylic acid [5-(5-morpholin-4-ylmethyl-1H-indol-2-yl)-6-oxo-1,6-dihydro-pyridin-3-yl]-amide]
IC50: < 100 nM

CCN(CCO)Cc1ccc2[nH]c(-c3cc(NC(=O)c4cnn(Cc5ccc(Cl)cc5)c4)c[nH]c3=O)cc2c1 [Example 45, 1-(4-Chloro-benzyl)-1H-pyrazole-4-carboxylic acid [5-(5-{[ethyl-(2-hydroxy-ethyl)-amino]-methyl}-1H-indol-2-yl)-6-oxo-1,6-dihydro-pyridin-3-yl]-amide]
IC50: < 100 nM

O=C(Nc1cnn(CC2CCCCC2)c1)c1c[nH]c(=O)c(-c2cc3ccccc3[nH]2)c1 [Example 34, 5-(1H-Indol-2-yl)-6-oxo-1,6-dihydro-pyridine-3-carboxylic acid (1-cyclohexylmethyl-1H-pyrazol-4-yl)-amide]
IC50: 500 to 1500 nM

CC(C)c1ccc(Cn2cc(C(=O)Nc3c[nH]c(=O)c(-c4cc5cc(OCCN6CCCCC6)ccc5[nH]4)c3)cn2)cc1 [Example 152, 1-(4-Isopropylbenzyl)-1H-pyrazole-4-carboxylic acid {5-[5-(2-piperidin-1-ylethoxy)-1H-indol-2-yl)-6-oxo-1,6-dihydropyridin-3-yl}-amide]
IC50: < 100 nM

O=C(Nc1c[nH]c(=O)c(-c2cc3ccccc3[nH]2)c1)c1cnn(Cc2cccc(C(F)(F)F)c2)c1 [Example 23, 1-(3-Trifluoromethyl-benzyl)-1H-pyrazole-4-carboxylic acid [5-(1H-indol-2-yl)-6-oxo-1,6-dihydro-pyridin-3-yl]-amide]
IC50: < 100 nM
